Experimental data from patent US9364457B2, “Method for manufacturing composition for lowering blood lipid and elevating high-density lipoprotein” (SunWay Biotech Co., Ltd., priority 2011, dated 2016).

Assays:
[1] = tested on: lipid plaque on arterial vascular walls in the thoracic cavity; experiment: Lipid plaque staining in arteries of high cholesterol diet animals; assay type: in vivo, hamsters; conditions: high cholesterol diet for eight weeks, human-equivalent per day: MK 2.89 mg, MS 9.82 mg, AF 1.43 mg
Description: Firstly, the experiment utilizes hamsters feed with high cholesterol diet as experimental animals, which are then feed with MS, AF, MS+AF, and MK for 8 weeks, and then each of cholesterol parameters in blood of the hamsters are analyzed. The cholesterol parameters include total cholesterol (TC), triglyceride (TG), high density lipoprotein cholesterol (HDL-C), low density lipoprotein cholesterol (LDL-C), ratio of LDL-C to HDL-C, and malondialdehyde (MDA). The amount of the MK taken by the experimental animals is equivalent to 2.89 mg taken by an adult human per day. Additionally, a normal diet group is referred to as NOR, and a high cholesterol diet group is referred to as HC.
Another important indicator for evaluating atherosclerosis is the analysis of lipid plaque staining in arteries, and the results of lipid plaque staining can indicate that whether lipid plaque deposits on arterial vascular walls. Large amounts of lipid with over-oxidation can cause bulk deposition of foam cells, and then the vascular walls lose elasticity and large amounts of lipid plaque are deposited, so as to lead to atherosclerosis. Referring to FIG. 11, which is a diagram of quantitative results of the lipid plaque staining experiment.

[2] = tested on: cholesterol biosynthesis; experiment: Cell experiment on inhibition of cholesterol biosynthesis; assay type: cell-based; conditions: cells treated with the same concentration, 100 ppb
Source text: In order to compare the inhibitory effect of cholesterol biosynthesis by monascin, ankaflavin and monacolin K, the present invention applies a cell experiment and treats cells with monascin, ankaflavin and monacolin K with the same concentration (100 ppb) for researching the influence of these ingredients on the cholesterol biosynthesis.

[3] = tested on: hamsters feed with high cholesterol diet; experiment: Cholesterol parameters in blood of hamsters fed high cholesterol diet; assay type: in vivo; conditions: ratio of LDL-C to HDL-C, hamsters on high cholesterol diet, 8 weeks
Description: Additionally, a composition containing monacolin K is utilized as a comparison group, which is called as MK for abbreviation.
Firstly, the experiment utilizes hamsters feed with high cholesterol diet as experimental animals, which are then feed with MS, AF, MS+AF, and MK for 8 weeks, and then each of cholesterol parameters in blood of the hamsters are analyzed. The cholesterol parameters include total cholesterol (TC), triglyceride (TG), high density lipoprotein cholesterol (HDL-C), low density lipoprotein cholesterol (LDL-C), ratio of LDL-C to HDL-C, and malondialdehyde (MDA). […] Additionally, a normal diet group is referred to as NOR, and a high cholesterol diet group is referred to as HC.

SMILES: CC[C@H](C)C(=O)O[C@H]1C[C@@H](C)C=C2C=C[C@H](C)[C@H](CC[C@@H]3C[C@@H](O)CC(=O)O3)[C@H]21 [MK, monacolin K]
- amount of lipid plaque on arterial vascular walls (lipid plaque staining, FIG. 11) [1]: can lower the amount of lipid plaque
- inhibition of cholesterol biosynthesis (FIG. 12) [2]: weakest effect
- LDL/HDL [3]: 0.489
